Assay results from US20050054637A1, “Substituted piperazine cyclohexane carboxilic acid amides and the use thereof” (priority 2001, published 2005).
pIC50: −log10 of the molar value.

What was measured:
[1] = system: mongrel dogs; assay: In vivo test model for adenosine-uptake inhibitors: reactive hyperaemia after coronary occlusion in anaesthetized dogs; set-up: species or system dog; conditions: 10 μg/kg i.v., reactive hyperaemia after four-minute occlusion
Method: 2. In vivo Test Model for Testing Adenosine-Uptake Inhibitors
Adult mongrel dogs (body weight 20-30 kg) are initially anaesthetized using a combination of trapanal 500 mg and alloferin 55 mg. Anaesthesia is maintained by infusion of a mixture of fentanyl 0.072 mg/kg, alloferin 0.02 mg/kg and dihydrobenzpyridyl 0.25 mg/kg×min. The animals are intubated and ventilated with a mixture of O2/N2O (ratio 1:5) using a Dräger ventilation pump at 16 breaths per min and a volume of 18-24 ml/kg. The body temperature is maintained at 38° C.±0.1° C. Arterial blood pressure is measured via a catheter in the femoral artery. A thoractomy is carried out on the left side at the fifth intercostal space. The lung is pushed back and fixed and a cut is made in the pericardium. A proximal section of the LAD distally to the first diagonal branch is exposed and a calibrated electromagnetic flow sensor (from Scalar) is placed around the vessel and attached to a flow meter (from Scalar, model MDL 1401). Distally to the flow sensor, a mechanical occluder is attached such that there are no branches in between flow sensor and occluder.
Using a catheter in the femoral vein, blood samples are taken and substances (10 μg/kg i.v.) are administered. A peripheral ECG is recorded using needles which are fixed subcutaneously. A microtip pressure manometer (from Millar, model PC-350) is pushed through the left atrium to measure the pressure in the left ventricle. Measurement of the heart frequency is triggered by the R wave of the ECG. During the entire experiment, the haemodynamic parameters and the coronary flow are recorded using a multi-event recorder.
A four-minute occlusion causes reactive hyperaemia. The difference between the coronary flow under control conditions and the maximum flow during the reactive hyperaemia is measured. The time which is required to achieve half of this maximum flow in the drop is a suitable parameter to assess the reaction hyperaemia.
After a stabilization period of one hour, the experiment is started with a four-minute occlusion. Thirty minutes later, the substance is administered (i.v.) which is, after two minutes, followed by re-occlusion. The reactive hyperaemia after verum and placebo is compared.

[2] = system: adenosine uptake in rabbit erythrocytes; assay: Inhibition of the adenosine uptake in rabbit erythrocytes (functional adenosine-uptake test); type: cell-based; conditions: Oryctolagus cuniculus, 0.25 h; rabbit erythrocyte preparation, 30° C., adenosine remaining 15 min after addition of adenosine
Method: 1. Inhibition of the Adenosine Uptake in Rabbit Erythrocytes by the Compounds According to the Invention
The capability of substnaces to influence the adenosine-uptake system is investigated by determining the inhibitory effect of the substances on functional adenosine uptake.
For the functional adenosine-uptake test, an erythrocyte preparation from rabbit blood is used. The blood is drawn intravenously using citrate (3 ml Monovette 9NC from Sarstedt) as anticoagulant. The blood is centrifuged at 3000 g for 5 min and the erythrocytes are suspended in 10 mM 3-(N-morpholino)propanesulphonic acid buffer (MOPS)/0.9% aqueous sodium chloride solution pH 7.4. The suspension is diluted to one hundredth of the original blood volume. In each case, 990 μl of the suspension are admixed with 10 μl of a suitable concentration of the substance to be examined, and the mixture is incubated at 30° C. for 5 min. 5 μl of a 4 mM adenosine solution are then added, and the mixture is incubated at 30° C. for another 15 min. The samples are then centrifuged at 3000 g for 5 min and in each case 700 μl of the supernatant are mixed with 28 μl of 70% strength HClO4, allowed to stand in an ice bath for 30 min and centrifuged at 16 000 g for 3 min, and 350 μl of the sample are neutralized using 30 μl of 5 N NaOH. 50 μl of the sample are applied to a column (Waters Symmetry C18 5 μm, 3.9×150 mm). A Spherisorb ODS II 5 μm, 4.6×10 mm column is used as precolumn The mobile phase used is a gradient of 50 mM KH2PO4/5 mM tributylamine pH 7 (mobile phase A) and a mixture of mobile phase A/methanol 1:1 (mobile phase B). The gradient is from 10% to 40% B, at a flow rate of 0.5 ml/min. The adenosine which is present is quantified by its absorption at 260 nm, as are the hypoxanthine and inosine formed.
Table 1 below lists the IC50 values obtained using this test: […]

| pIC50 [2] | Structure (SMILES) | Increase of coronary blood flow in % [1] [%] |
| --- | --- | --- |
| 7.52 | NC(=O)[C@@H](NC(=O)[C@@H]1CCCC[C@H]1N1CCN(C(=O)c2ccc[nH]2)CC1)c1ccccc1 [Example 18, (1R,2R)-N-[(1S)-2-Amino-2-oxo-1-phenylethyl]-2-{4-[(2-pyrrolyl)carbonyl]-1-piperazinyl}cyclohexanecarboxamide] | 347 |
| 7.70 | NC(=O)[C@@H](NC(=O)[C@@H]1CCCC[C@H]1N1CCN(C(=O)c2ccccc2F)CC1)c1ccccc1 [Example 27] | – |
| 7.70 | Cc1ccc(C(=O)N2CCN([C@@H]3CCCC[C@H]3C(=O)N[C@H](C(N)=O)c3ccccc3)CC2)s1 [Example 17, (1R,2R)-N-[(1S)-2-Amino-2-oxo-1-phenylethyl]-2-{4-[(5-methyl-2-thienyl)-carbonyl]-1-piperazinyl}cyclohexanecaiboxamide] | 250 |
| 7.82 | NC(=O)[C@@H](NC(=O)[C@@H]1CCCC[C@H]1N1CCN(C(=O)OC2CCCC2)CC1)c1ccccc1 [Example 21] | – |
| 7.70 | NC(=O)[C@@H](NC(=O)[C@@H]1CCCC[C@H]1N1CCN(C(=O)c2ccc3c(c2)OCO3)CC1)c1ccccc1 [Example 66] | – |

The remaining lines, values behind:

| Structure (SMILES) | pIC50 [2] | Increase of coronary blood flow in % [1] [%] |
| --- | --- | --- |
| NC(=O)[C@@H](NC(=O)[C@@H]1CCCC[C@H]1N1CCN(Cc2ccccc2)CC1)c1ccc(F)cc1 [Example 8, (1R,2R)-N-[(1S)-2-Amino-1-(4-fluorophenyl)-2-oxoethyl]-2-(4-benzyl-1-piperazinyl)cyclohexanecarboxamide] | 7.10 | – |
| NC(=O)[C@@H](NC(=O)[C@@H]1CCCC[C@H]1N1CCN(C(=O)c2ccccc2)CC1)c1ccccc1 [Example 1, (1R,2R)-N-[(1S)-2-Amino-2-oxo-1-phenylethyl]-2-(4-benzoyl-1-piperazinyl)cyclo-hexanecarboxamide] | 7.52 | 258 |
| NC(=O)[C@@H](NC(=O)[C@@H]1CCCC[C@H]1N1CCN(C(=O)c2ccccc2)CC1)c1ccc(F)cc1 [Example 2, (1R,2R)-N-[(1S)-2-Amino-2-oxo-1-(4-fluorophenyl)ethyl]-2-(4-benzoyl-1-piperazin-yl)cyclohexanecarboxamide] | 7.52 | – |
| NC(=O)[C@@H](NC(=O)[C@@H]1CCCC[C@H]1N1CCN(C(=O)c2ccc(F)cc2F)CC1)c1ccccc1 [Example 16, (1R,2R)-N-[(1S)-2-Amino-2-oxo-1-phenylethyl]-2-[4-(2,4-difluorobenzoyl)-1-piperazinyl)cyclohexanecarboxamide] | 7.52 | 326 |
| NC(=O)[C@@H](NC(=O)[C@@H]1CCCC[C@H]1N1CCN(C(=O)c2n[nH]c3ccccc23)CC1)c1ccccc1 [Example 3, (1R,2R)-N-[(1S)-2-Amino-2-oxo-1-phenylethyl]-2-[4-(1H-indazol-3-ylcarbonyl)-1-piperazinyl]cyclohexanecarboxamide] | 7.52 | – |
